pIC50: −log10 of the molar value.
Columns and labels:
[1] = system: mock-infected MT-4 cells; assay: Cytotoxicity in mock-infected MT-4 cells (MTT); assay type: cell-based; conditions: concentration reducing absorbance of mock-infected MT-4 control by 50%
[2] = system: HIV-1; conditions: for pIC50: dose achieving 50% protection of HIV-infected MT-4 cells, MTT, OD 540 nm; for SI: selectivity index, ratio of CC50 to IC50
Procedure: A rapid, sensitive and automated assay procedure was used for the in vitro evaluation of anti-HIV agents. […] Inhibition of the HIV-induced cytopathic effect was used as the end point. The viability of both HIV- and mock-infected cells was assessed spectrophotometrically via the in situ reduction of 3-(4,5-dimethylthiazol-2-yl)-2,5-diphenyltetrazolium bromide (MTT). […] The percent protection achieved by the compound in HIV-infected cells was calculated by the following formula:
[formula] expressed in %, whereby (ODT)HIV is the optical density measured with a given concentration of the test compound in HIV-infected cells; (ODC)HIV is the optical density measured for the control untreated HIV-infected cells; (ODC)MOCK is the optical density measured for the control untreated mock-infected cells; all optical density values were determined at 540 nm. […] The ratio of CC50 to IC50 was defined as the selectivity index (SI).

Row | SMILES | CC50 [1] | pIC50 [2] | SI [2]
1 | Cc1cc(C)cc(Sc2c(CSCc3cccs3)c(C)[nH]c(=O)c2I)c1 [compound 8] | > 100 µM | 8.00 | >10000
2 | Cc1cc(C)cc(Sc2c(/C=N/OCc3ccccc3)c(C)[nH]c(=O)c2I)c1 [compound 31] | > 100 µM | 8.10 | >12589
3 | CON=Cc1c(C)[nH]c(=O)c(I)c1Sc1cc(C)cc(C)c1 [compound 46] | > 100 µM | 8.70 | >50119
4 | CCc1c(C)[nH]c(=O)c(I)c1Oc1cc(C)cc(CCl)c1 [compound 81] | 13 µM | 8.20 | 1995
5 | CCc1c(C)[nH]c(=O)c(I)c1Oc1cc(C)cc(/C=C/C#N)c1 [compound 83] | 8 µM | 8.60 | 3162
6 | CCc1c(C)[nH]c(=O)c(I)c1Sc1cccc(C)c1 [compound 88] | > 100 µM | 8.60 | >39811
7 | Cc1cc(C)cc(Oc2c(CSCc3ccccc3)c(C)[nH]c(=O)c2I)c1 [compound 92] | > 32 µM | 8.20 | >5012
8 | CCOC(=O)CSCc1c(C)[nH]c(=O)c(I)c1Oc1cc(C)cc(C)c1 [compound 99] | > 100 µM | 8.00 | >10000
9 | CCc1c(COC(N)=O)[nH]c(=O)c(I)c1Oc1cc(C)cc(C)c1 [compound 105] | > 10 µM | 8.70 | >5012
10 | CCc1c(C)[nH]c(=O)c(Br)c1Sc1cc(C)cc(C)c1 [compound 109] | 32 µM | 8.60 | 12589
11 | CCc1c(C)[nH]c(=O)c(I)c1Sc1cc(Cl)cc(Cl)c1 [compound 115] | 8 µM | 8.60 | 3162
12 | CCc1c(C)[nH]c(=O)c(I)c1Oc1cccc(N)c1 [compound 121] | > 100 µM | 8.00 | >10000
13 | CCSCc1c(C)[nH]c(=O)c(I)c1Oc1cc(C)cc(C)c1 [compound 124] | > 10 µM | 8.89 | >7943
14 | Cc1cc(C)cc(Oc2c(C=CC#N)c(C)[nH]c(=O)c2I)c1 [compound 140] | > 10 µM | 8.20 | >1585
15 | Cc1cc(C)cc(Oc2c(CNC(=O)c3cc4ccccc4o3)c(C)[nH]c(=O)c2I)c1 [compound 143] | > 10 µM | 8.20 | >1585
16 | CCc1c(CCCO)[nH]c(=O)c(I)c1Oc1cc(C)cc(C)c1 [compound 217] | > 10 µM | 8.20 | >1585
17 | CCOC(=O)NCc1c(C)[nH]c(=O)c(I)c1Oc1cc(C)cc(C)c1 [compound 218] | > 10 µM | 8.10 | >1259
18 | Cc1cc(C)cc(Oc2c(CNC=O)c(C)[nH]c(=O)c2I)c1 [compound 219] | > 32 µM | 8.00 | >3162
19 | Cc1cccc(Sc2c3c([nH]c(=O)c2I)CCCCC3)c1 [compound 221] | > 20 µM | 8.20 | >3162
20 | Cc1cccc(Sc2c3c([nH]c(=O)c2I)CCCC3)c1 [compound 222] | 2 µM | 8.10 | 251
21 | CCc1c(C)[nH]c(=O)c(C2CC2)c1Oc1cc(C)cc(C)c1 [compound 230] | 8 µM | 8.20 | 1259
22 | CON=Cc1c(C)[nH]c(=O)c(I)c1Oc1cc(C)cc(C)c1 [compound 232] | > 32 µM | 8.20 | >5012
23 | Cc1cc(C)cc(Oc2c(CCO)c(C)[nH]c(=O)c2I)c1 [compound 241] | > 100 µM | 8.80 | >63096
24 | Cc1cc(C)cc(Oc2c(CCCO)c(C)[nH]c(=O)c2I)c1 [compound 242] | > 100 µM | 9.22 | >158489
25 | Cc1cc(C)cc(Oc2c(COCc3ccsc3)c(C)[nH]c(=O)c2I)c1 [compound 244] | > 100 µM | 8.40 | >25119

Row | SMILES | CC50 [1] | pIC50 [2] | SI [2]
26 | Cc1cc(C)cc(Oc2c(COCc3ccccc3)c(C)[nH]c(=O)c2I)c1 [compound 245] | > 100 µM | 8.20 | >15849
27 | COc1ccccc1Cc1c(C)[nH]c(=O)c(I)c1Oc1cc(C)cc(C)c1 [compound 249] | > 32 µM | 8.89 | >25119
28 | Cc1cc(C)cc(Oc2c(CCCOCc3ccccc3)c(C)[nH]c(=O)c2I)c1 [compound 250] | 25 µM | 8.30 | 5012
29 | COCCOCc1c(C)[nH]c(=O)c(I)c1Oc1cc(C)cc(C)c1 [compound 253] | > 10 µM | 8.80 | >6310
30 | Cc1cc(C)cc(Oc2c(COCCO)c(C)[nH]c(=O)c2I)c1 [compound 254] | > 32 µM | 8.70 | >15849
31 | CCOCc1c[nH]c(=O)c(I)c1Oc1cc(C)cc(C)c1 [compound 256] | > 10 µM | 8.70 | >5012
32 | COCCc1c(C)[nH]c(=O)c(I)c1Oc1cc(C)cc(C)c1 [compound 264] | > 10 µM | 9.00 | >10000
33 | CCc1c(C)[nH]c(=O)c(SC)c1Oc1cc(C)cc(C)c1 [compound 272] | 25 µM | 8.70 | 12589
34 | CCc1c(C)[nH]c(=O)c(OC)c1Oc1cc(C)cc(C)c1 [compound 277] | > 100 µM | 8.60 | >39811
35 | CCc1c(C)[nH]c(=O)c(Sc2ccccc2)c1Oc1cc(C)cc(C)c1 [compound 280] | 25 µM | 8.00 | 2512
36 | CCc1c(C)[nH]c(=O)c(Br)c1Oc1cc(C)cc(C)c1 [compound 284] | > 10 µM | 8.70 | >5012
37 | CCc1c(C)[nH]c(=O)c(I)c1Cc1cccc(C)c1 [compound 286] | > 32 µM | 8.60 | >12589
38 | C=Cc1cccc(Oc2c(CC)c(C)[nH]c(=O)c2I)c1 [compound 296] | 25 µM | 8.70 | 12589
39 | CCc1c(C)[nH]c(=O)c(I)c1Oc1cccc([N+](=O)[O-])c1 [compound 297] | > 32 µM | 8.40 | >7943
40 | CCc1c(C)[nH]c(=O)c(I)c1Oc1cccc(/C=C/C=C/C#N)c1 [compound 299] | – | 8.60 | 32
41 | CCc1c(C)[nH]c(=O)c(I)c1Oc1cccc(C)c1 [compound 306] | > 32 µM | 8.80 | >19953
42 | CCc1c(C)[nH]c(=O)c(I)c1Oc1cccc(Br)c1 [compound 307] | > 32 µM | 8.30 | >6310
43 | CCc1c(C)[nH]c(=O)c(I)c1Oc1cccc(C=CC=NO)c1 [compound 309] | 10 µM | 8.20 | 1585
44 | CCc1c[nH]c(=O)c(I)c1Oc1cccc(C)c1 [compound 314] | > 32 µM | 8.10 | >3981
45 | CCc1c(C)[nH]c(=O)c(I)c1Oc1cccc(/C=C/C#N)c1 [compound 319] | > 100 µM | 8.70 | >50119
46 | CCc1c(C)[nH]c(=O)c(I)c1Oc1cccc(C=O)c1 [compound 321] | > 100 µM | 8.20 | >15849
47 | CCc1c(C)[nH]c(=O)c(I)c1Oc1cccc(CO)c1 [compound 322] | > 100 µM | 8.20 | >15849
48 | CCOC(=O)c1c(Oc2cc(C)cc(C)c2)c(CC)c(C)[nH]c1=O [compound 324] | 32 µM | 8.30 | 6310
49 | CCc1c(C)[nH]c(=O)c(I)c1Oc1ccccc1 [compound 328] | > 100 µM | 8.80 | >63096
50 | Cc1cc(C)cc(Oc2c(CSCc3ccco3)c(C)[nH]c(=O)c2I)c1 [compound 375] | > 100 µM | 8.89 | >79433

Source: patent US7115608B2, “Pyridinone and pyridinethione derivatives having HIV inhibiting properties” (Centre National de la Recherche Schentifique, priority 2000, dated 2006)
